Laboratory results reported in US4971964A, “Pyridine derivatives” (priority 1988, dated 1990).

Experiments:
[1] = target: T1, thromboxane synthase (TXA2 synthase), bovine platelet microsome (Bos taurus, UniProt Q2KIG5); assay: Test on Inhibition of TXA2 Biosynthesis (bovine platelet microsome, TXB2 by radioimmunoassay); format: biochemical; settings: for IC50: bovine platelet microsome, pH 7.4, prostaglandin H2 substrate
T1 construct: bovine platelet microsome; from tissue; host or cells: bovine platelets (microsome)
T1 sequence (Q2KIG5 1-533): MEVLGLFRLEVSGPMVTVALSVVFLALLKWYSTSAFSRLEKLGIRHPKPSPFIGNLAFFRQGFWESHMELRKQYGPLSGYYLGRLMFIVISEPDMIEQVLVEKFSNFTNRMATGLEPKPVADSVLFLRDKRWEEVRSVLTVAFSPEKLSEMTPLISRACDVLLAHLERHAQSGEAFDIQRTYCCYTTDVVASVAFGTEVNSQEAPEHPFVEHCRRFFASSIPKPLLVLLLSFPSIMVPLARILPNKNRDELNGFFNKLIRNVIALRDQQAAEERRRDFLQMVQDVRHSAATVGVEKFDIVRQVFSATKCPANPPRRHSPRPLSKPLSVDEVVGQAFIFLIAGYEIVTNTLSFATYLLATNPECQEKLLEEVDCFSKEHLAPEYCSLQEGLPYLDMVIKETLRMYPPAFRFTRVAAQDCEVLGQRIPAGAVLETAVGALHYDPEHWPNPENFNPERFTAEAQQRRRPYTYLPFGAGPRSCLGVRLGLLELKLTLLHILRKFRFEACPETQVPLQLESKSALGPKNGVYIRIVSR
Procedure: A mixture of 70 μl of bovine platelet microsome [protein: 40 μg; 100 mM tris-HCl buffer (pH=7.4)] and 10 μl of a test compound solution (100 mM tris-HCl buffer containing 10% methanol) was allowed to stand at 0° C. for 5 minutes, and 20 μl of a prostaglandin H2 solution (100 mM tris-HCl buffer supplemented with acetone containing 0.1 nmol of prostaglandin H2) was added thereto as a substrate.
The amount of thromboxane B2 (TXB2) (stable degradation product of TXA2) produced in the system was determined by radioimmunoassay [F. A. Fitzpatrick et al., Methods in Enzymology, Vol. 86, p.286 (1982)].
Inhibition of TXB2 synthesis was evaluated by IC50 (50% inhibitory concentration) or percent inhibition as calculated from equation described below, and the results obtained are shown in Table 1. [formula]

dd male mice = assay: Acute Toxicity Test (minimum lethal dose, MLD); format: in vivo; settings: dd male mice, mortality after 7 days
Procedure: A test compound was given to dd male mice weighing 20±1 g (3 mice per group) per os. (p.o.; 300 mg/kg) or intraperitoneally (i.p.; 100 mg/kg). The mortality after 7 days from the administration was considered to determine the minimum lethal dose (MLD).

[2] = test system: silver nitrate-induced arteriothromboembolia in male Wistar-Shizuoka rats; assay: Test on Inhibition of Silver Nitrate-Induced Arteriothromboembolia in Rats; format: in vivo; settings: for Number of Obstruction Case/Number of Experiments: control 23/26; for Percent Obstruction: control 88%
Excerpt: Male Wistar -Shizuoka rats weighing 270±20 g were anesthetized with urethane (1.5 g/kg) intraperitoneally. Each animal was fixed on its back, and a venous cannula and an arterial cannula were inserted into the left carotid vein and the left femoral artery, respectively. An abdominal incision was made, the intestinal tract was put aside so that the descending abdominal aorta could be seen, the surrounding connective tissues were removed, the descending aorta was detached to a length of about 1 cm, and the detached descending aorta was put on a globe of 8 cm in diameter. A solvent (0.1 ml; physiological saline containing 0.05N sodium hydroxide) or a drug solution (0.1 ml) in the solvent was injected via the cannulated carotid vein per 100 g of body weight. Three minutes later, a 30% silver nitrate aqueous solution was dropped on the detached descending abdominal aorta. Five minutes later, the globe was removed, and the affected site was washed three times with physiological saline to stop the reaction. After the elapse of 30 minutes from the stopping of the reaction, the blood pressure of the femoral artery was measured, and the pressure fall was taken as an indication of obstruction of the descending arterial. Significance of the difference in degree of the obstruction between the control group (only the solvent was administered) and the test group was assayed by X^2 -assay.

| Compound | IC50 [1] | Acute Toxicity (MLD) ip (dd male mice) | Acute Toxicity (MLD) po (dd male mice) | also measured |
| --- | --- | --- | --- | --- |
| O=C(O)CCCC/C=C1\c2ccccc2NC(=O)c2ccncc21 [Compound I-10E, (E)-11-(5-Carboxypentylidene)-5,11-dihydropyrido[4,3-c][1]benzazepin-5(6H)-one] | 0.021 µM | > 100 mg/kg | > 300 mg/kg | – |
| CN1C(=O)c2cnccc2/C(=C/CCCCC(=O)O)c2ccccc21 [Compound I-20Z, (Z)-5-(5-carboxypentylidene)-10-methyl-5,11-dihydropyrido[3,4-c][1]benzazepin-11(10H)-one] | – | > 100 mg/kg | > 300 mg/kg | inhibition at 10 µM [1]: -23% |
| O=C(O)CCCCC=C1c2cnccc2CNc2ccccc21 [Compound I-15, 11-(5-Carboxypentylidene)-11H-5,6-dihydropyrido[4,3-c][1]benzazepin] | 0.022 µM | > 100 mg/kg | > 300 mg/kg | – |
| C/C=C/C1=Cc2ccccc2/C(=C/CCCCC(=O)O)c2cnccc21 [Compound I-7, (Z)-11-(5-Carboxypentylidene)-5-[(E)-1-propen-1-yl]-(H)-pyrido[3,4-b]benzcycloheptene] | 0.021 µM | > 100 mg/kg | > 300 mg/kg | – |
| O=C(O)CCCC/C=C1\c2ccccc2NC(=O)c2cnccc21 [Compound I-19Z, (Z)-5-(5-carboxypentylidene)-5,11-dihydropyrido[3,4-c][1]benzazepin-11(10H)-one] | – | > 100 mg/kg | > 300 mg/kg | inhibition at 10 µM [1]: 8% |
| CN1C(=O)c2ccncc2/C(=C/CCCCC(=O)O)c2ccccc21 [Compound I-12E, (E)-11-(5-Carboxypentylidene)-6-methyl-5,11-dihydropyrido[4,3-c][1]benzazepin-5(6H)-one] | 0.02 µM | > 100 mg/kg | > 300 mg/kg | – |
| O=C(O)CCCCC=C1c2cc(Br)ccc2NC(=O)c2ccncc21 [Compound I-1, 9-Bromo-11-(5-carboxypentylidene)-5,11-dihydropyrido-[4,3-c][1]benzazepin-5(6H)-one] | 0.032 µM | > 100 mg/kg | > 300 mg/kg | – |
| O=C(O)CCCC/C=C(\c1ccccc1)c1cccnc1 [CV-4151, reference compound] | – | – | – | Number of Obstruction Case/Number of Experiments ([2]; 0.3 mg/kg i.v.): 4/6; Percent Obstruction ([2]; 0.3 mg/kg i.v.): 67%; Number of Obstruction Case/Number of Experiments ([2]; 1.0 mg/kg i.v.): 4/8; Percent Obstruction ([2]; 1.0 mg/kg i.v.): 50%; Number of Obstruction Case/Number of Experiments ([2]; 3.0 mg/kg i.v.): 1/5; Percent Obstruction ([2]; 3.0 mg/kg i.v.): 20% |
| COC1=Nc2ccncc2/C(=C\CCCCC(=O)O)c2ccccc21 [Compound I-13Z, (Z)-11-(5-carboxypentylidene)-6-methoxy-11H-pyrido[4,3-c][2]benzazepin] | 0.0035 µM | > 100 mg/kg | > 300 mg/kg | – |
| O=C(O)CCCC/C=C1/c2cnccc2C(=O)N(Cc2ccccc2)c2ccccc21 [Compound I-11E, (E)-6-Benzyl-11-(5-carboxypentylidene)-5,11-dihydropyrido[4,3-c][1]benzazepin-5(6H)-one] | 0.0083 µM | > 100 mg/kg | > 300 mg/kg | – |
| CSC1=Nc2ccccc2C(=CCCCCC(=O)O)c2cnccc21 [Compound I-6, 11-(5-Carboxypentylidene)-5-thiomethyl-11(H)-pyrido-[4,3-c][1]benzazpin] | 0.005 µM | > 100 mg/kg | > 300 mg/kg | – |
| O=C(O)CCCC/C=C1\c2cnccc2C(=O)N(Cc2ccccc2)c2ccccc21 [Compound I-11Z, (Z)-6-benzyl-11-(5-carboxypentylidene)-5,11-dihydropyrido[4,3-c][1]benzazepin-5(6H)-one] | 0.041 µM | > 100 mg/kg | > 300 mg/kg | – |
| CN1C(=O)c2cnccc2/C(=C\CCCCC(=O)O)c2ccccc21 [Compound I-20E, (E)-5-(5-Carboxypentylidene)-10-methyl-5,11-dihydropyrido[3,4-c][1]benzazepin-11(10H)-one] | – | > 100 mg/kg | > 300 mg/kg | inhibition at 10 µM [1]: 10% |
| CSC1Nc2ccccc2C(=CCCCCC(=O)O)c2ccncc21 (stereo not drawn) [Compound I-22, 5-(5-Carboxypentylidene)-11-thiomethyl-5H-10,11-dihydropyrido[3,4-c][1]benzazepin] | – | > 100 mg/kg | > 300 mg/kg | inhibition at 10 µM [1]: 27% |
| O=C(O)CCCCCC1c2ccccc2NC(=O)c2cnccc21 (stereo not drawn) [Compound I-21, 5-(5-Carboxypentyl)-5,11-dihydropyrido[3,4-c][1]benzazepin-11(10H)-one] | – | > 100 mg/kg | > 300 mg/kg | inhibition at 10 µM [1]: 47% |
| Cc1cccc2c1NC(=O)c1ccncc1C2=CCCCCC(=O)O [Compound I-2, 11-(5-Carboxypentylidene)-7-methyl-5,11-dihydropyrido-[4,3-c][1]benzazepin-5(6H)-one] | – | > 100 mg/kg | > 300 mg/kg | inhibition at 0.1 µM ([1]; 0.1 μM (footnote *), read-out: Inhibition of TXA2 Biosynthesis, Percent inhibition at 0.1 μM): 41% |
| O=C(O)CCCC/C=C1/c2cnccc2NC(=O)c2ccccc21 [Compound I-14E, (E)-11-(5-Carboxypentylidene)-6,11-dihydropyrido[4,3-c][2]benzazepin-6(5H)-one] | 0.022 µM | > 100 mg/kg | > 300 mg/kg | – |
| CSC1=Nc2ccccc2C(=CCCCCC(=O)O)c2ccncc21 [Compound I-18, 5-(5-Carboxypentylidene)-11-thiomethyl-5H-pyrido[3,4-c][1]benzazepin] | 0.1 µM | > 100 mg/kg | > 300 mg/kg | – |
| O=C(O)CCCC/C=C1\c2cnccc2NC(=O)c2ccccc21 [Compound I-14Z, (Z)-11-(5-Carboxypentylidene)-6,11-dihydropyrido[4,3-c][2]benzazepin-6(5H)-one] | 0.451 µM | > 100 mg/kg | > 300 mg/kg | – |
| O=C(O)CCCCCCC=C1c2ccccc2NC(=O)c2ccncc21 [Compound I-5, 11-(7-Carboxyheptylidene)-5,11-dihydropyrido[4,3-c][1]-benzazepin-5(6H)-one] | 0.13 µM | > 100 mg/kg | > 300 mg/kg | – |
| COc1ccc2c(c1)C(=CCCCCC(=O)O)c1cnccc1C(=O)N2C [Compound I-3, 11-(5-Carboxypentylidene)-9-methoxy-6-methyl-5,11-dihydropyrido-[4,3-c][1]benzazepin-5(6H)-one] | 0.4 µM | > 100 mg/kg | > 300 mg/kg | – |
| O=C(O)CCCC=C1c2ccccc2NC(=O)c2ccncc21 [Compound I-4, 11-(4-Carboxybutylidene)-5,11-dihydropyrido[4,3-c][1]-benzazepin-5(6H)-one] | 0.25 µM | > 100 mg/kg | > 300 mg/kg | – |
| C/C(=C\c1ccc(Cc2cccnc2)cc1)C(=O)O [OKY-1581, reference compound] | – | – | – | Number of Obstruction Case/Number of Experiments ([2]; 0.3 mg/kg i.v.): 5/5; Percent Obstruction ([2]; 0.3 mg/kg i.v.): 100%; Number of Obstruction Case/Number of Experiments ([2]; 1.0 mg/kg i.v.): 4/6; Percent Obstruction ([2]; 1.0 mg/kg i.v.): 67%; Number of Obstruction Case/Number of Experiments ([2]; 3.0 mg/kg i.v.): 0/3; Percent Obstruction ([2]; 3.0 mg/kg i.v.): 0% |
